For orientation: EC50 means the concentration needed to bring the measured effect to its halfway point.

In patent US10738030B2, “Modulators of cystic fibrosis transmembrane conductance regulator” (Vertex Pharmaceuticals Incorporated, priority 2016, dated 2020) one finds Emax and EC50 data, which are given here for 21 compounds.

Some results are limits rather than exact numbers.

This assay deals with T1, F508del (Homo sapiens, UniProt P13569, DEL508-508).
T1 construct: expressed in transfected cells
Nature of the assay: Membrane potential optical assay (FRET voltage-sensor dyes), identification of correction compounds. In kind it is cell-based. The conditions noted are these: NIH3T3 cells stably expressing F508del, procedures described above; for Emax: maximum efficacy, read-out: Max Efficacy; for EC50: modulation of CFTR activity. Here is the method: (§1) NIH3T3 mouse fibroblasts stably expressing F508del are used for optical measurements of membrane potential. The cells are maintained at 37° C. in 5% CO2 and 90% humidity in Dulbecco's modified Eagle's medium supplemented with 2 mM glutamine, 10% fetal bovine serum, 1×NEAA, β-ME, 1× pen/strep, and 25 mM HEPES in 175 cm^2 culture flasks. For all optical assays, the cells were seeded at 12,000 cells/well in 384-well matrigel-coated plates and cultured for 18-24 hrs at 37° C. for the potentiator assay. For the correction assays, the cells are cultured at 37° C. with and without compounds for 18-24 hours.
Membrane potential optical methods for assaying F508del modulation properties of compounds.
The optical membrane potential assay utilized voltage-sensitive FRET sensors described by Gonzalez and Tsien (See Gonzalez, J. E. and R. Y. Tsien (1995) “Voltage sensing by fluorescence resonance energy transfer in single cells” Biophys J 69(4): 1272-80, and Gonzalez, J. E. and R. Y. Tsien (1997) “Improved indicators of cell membrane potential that use fluorescence resonance energy transfer” Chem Biol 4(4): 269-77) in combination with instrumentation for measuring fluorescence changes such as the Voltage/Ion Probe Reader (VIPR) (See, Gonzalez, J. E., K. Oades, et al. (1999) “Cell-based assays and instrumentation for screening ion-channel targets” Drug Discov Today 4(9): 431-439).
These voltage sensitive assays are based on the change in fluorescence resonant energy transfer (FRET) between the membrane-soluble, voltage-sensitive dye, DiSBAC2(3), and a fluorescent phospholipid, CC2-DMPE, which is attached to the outer leaflet of the plasma membrane and acts as a FRET donor. Changes in membrane potential (Vm) cause the negatively charged DiSBAC2(3) to redistribute across the plasma membrane and the amount of energy transfer from CC2-DMPE changes accordingly. The changes in fluorescence emission were monitored using VIPR™ II, which is an integrated liquid handler and fluorescent detector designed to conduct cell-based screens in 96- or 384-well microtiter plates.
To identify small molecules that correct the trafficking defect associated with F508del; a single-addition HTS assay format was developed. The cells were incubated in serum-free medium for 16 hrs at 37° C. in the presence or absence (negative control) of test compound. As a positive control, cells plated in 384-well plates were incubated for 16 hrs at 27° C. to “temperature-correct” F508del. The cells were subsequently rinsed 3× with Krebs Ringers solution and loaded with the voltage-sensitive dyes. To activate F508del, 10 μM forskolin and the CFTR potentiator, genistein (20 μM), were added along with Cl^−-free medium to each well. The addition of Cl^−-free medium promoted Cl^− efflux in response to F508del activation and the resulting membrane depolarization was optically monitored using the FRET-based voltage-sensor dyes.
• Bath Solution #1: (in mM) NaCl 160, KCl 4.5, CaCl2 2, MgCl2 1, HEPES 10, pH 7.4 with NaOH. • Chloride-free bath solution: Chloride salts in Bath Solution #1 (above) are substituted with gluconate salts. • CC2-DMPE: Prepared as a 10 mM stock solution in DMSO and stored at −20° C. • DiSBAC2(3): Prepared as a 10 mM stock in DMSO and stored at −20° C. Cell Culture
as §1, with “seeded at 30,000/well in 384-well” for “seeded at 12,000 cells/well in 384-well”, “cultured for 2 hrs at” for “cultured for 18-24 hrs at”, “37° C. before culturing at 27° C. for 24 hrs for the” for “37° C. for the”, “cultured at 27° C. or 37° C.” for “cultured at 37° C.”, “compounds for 16-24 hours.” for “compounds for 18-24 hours.”

T1 sequence (P13569 with tags, fused parts or gaps DEL508-508): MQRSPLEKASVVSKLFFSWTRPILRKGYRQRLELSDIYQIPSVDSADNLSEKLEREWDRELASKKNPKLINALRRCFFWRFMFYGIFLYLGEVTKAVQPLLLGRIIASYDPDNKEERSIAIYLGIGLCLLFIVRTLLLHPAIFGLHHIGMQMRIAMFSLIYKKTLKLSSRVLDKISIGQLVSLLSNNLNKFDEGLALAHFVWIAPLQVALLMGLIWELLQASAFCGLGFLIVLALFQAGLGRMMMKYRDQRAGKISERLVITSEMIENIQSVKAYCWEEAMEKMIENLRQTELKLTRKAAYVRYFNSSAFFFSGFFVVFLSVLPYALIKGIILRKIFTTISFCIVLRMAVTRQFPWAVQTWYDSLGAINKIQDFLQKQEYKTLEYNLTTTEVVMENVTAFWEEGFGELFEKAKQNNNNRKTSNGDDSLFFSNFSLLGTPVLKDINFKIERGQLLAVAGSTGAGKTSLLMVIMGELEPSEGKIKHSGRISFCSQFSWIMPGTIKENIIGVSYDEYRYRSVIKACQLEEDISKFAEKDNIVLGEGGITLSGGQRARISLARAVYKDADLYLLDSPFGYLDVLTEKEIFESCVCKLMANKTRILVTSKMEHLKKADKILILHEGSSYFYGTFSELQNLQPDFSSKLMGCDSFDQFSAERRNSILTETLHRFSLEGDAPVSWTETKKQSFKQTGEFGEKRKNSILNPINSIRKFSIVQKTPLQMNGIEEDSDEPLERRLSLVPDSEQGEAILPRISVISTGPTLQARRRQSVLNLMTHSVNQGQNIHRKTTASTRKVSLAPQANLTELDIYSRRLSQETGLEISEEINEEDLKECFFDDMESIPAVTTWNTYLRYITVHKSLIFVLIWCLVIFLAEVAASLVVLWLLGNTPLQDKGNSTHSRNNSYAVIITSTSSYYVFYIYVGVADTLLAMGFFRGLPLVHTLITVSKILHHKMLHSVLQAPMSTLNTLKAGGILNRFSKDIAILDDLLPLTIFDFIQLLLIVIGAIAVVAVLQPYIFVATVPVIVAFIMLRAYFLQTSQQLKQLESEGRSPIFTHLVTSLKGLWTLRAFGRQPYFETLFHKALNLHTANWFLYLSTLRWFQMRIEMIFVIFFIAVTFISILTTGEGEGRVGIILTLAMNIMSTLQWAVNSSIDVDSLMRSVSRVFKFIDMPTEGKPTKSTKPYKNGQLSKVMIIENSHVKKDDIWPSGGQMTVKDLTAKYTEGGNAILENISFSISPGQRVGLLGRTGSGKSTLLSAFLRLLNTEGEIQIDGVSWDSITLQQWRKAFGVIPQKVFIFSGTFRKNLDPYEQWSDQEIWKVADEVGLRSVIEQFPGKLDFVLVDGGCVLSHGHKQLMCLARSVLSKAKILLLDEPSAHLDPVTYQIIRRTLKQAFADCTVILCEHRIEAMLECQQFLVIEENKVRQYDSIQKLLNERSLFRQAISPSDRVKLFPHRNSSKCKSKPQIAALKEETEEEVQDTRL

For `CC(C)COc1cc(F)cc(-c2ccc(C(=O)NS(=O)(=O)c3cccc(N)n3)c(OCC(C)(C)C)n2)c1` [Compound 32, N-[(6-amino-2-pyridyl)sulfonyl]-2-(2,2-dimethylpropoxy)-6-(3-fluoro-5-isobutoxy-phenyl)pyridine-3-carboxamide], the Emax was above 80% and the EC50 was below 3 µM.

Take `CC(C)COc1cc(F)cc(-c2ccc(C(=O)NS(=O)(=O)c3cccc(N)n3)c(OC(C(F)(F)F)C(F)(F)F)n2)c1` [Compound 33, N-[(6-amino-2-pyridyl)sulfonyl]-6-(3-fluoro-5-isobutoxy-phenyl)-2-[2,2,2-trifluoro-1-(trifluoromethyl)ethoxy]pyridine-3-carboxamide]: the Emax fell in the range of 30 to 80% and the EC50 was below 3 µM.

On to `CCC(Oc1nc(-c2cc(F)cc(OCC(C)C)c2)ccc1C(=O)NS(=O)(=O)c1cccc(N)n1)C(C)(C)C` (stereo not drawn) [Compound 34], for which the Emax was above 80% and the EC50 was below 3 µM.

With `CC#CCCOc1nc(-c2cc(F)cc(OCC(C)C)c2)ccc1C(=O)NS(=O)(=O)c1cccc(N)n1` [Compound 35, N-[(6-amino-2-pyridyl)sulfonyl]-6-(3-fluoro-5-isobutoxy-phenyl)-2-pent-3-ynoxy-pyridine-3-carboxamide], the Emax is 30 to 80% and the EC50 was below 3 µM.

With `CC(C)COc1cc(F)cc(-c2ccc(C(=O)NS(=O)(=O)c3cccc(N)n3)c(OC(C)CC(C)(C)C)n2)c1` (stereo not drawn) [Compound 36, N-[(6-amino-2-pyridyl)sulfonyl]-6-(3-fluoro-5-isobutoxy-phenyl)-2-(1,3,3-trimethylbutoxy)pyridine-3-carboxamide], the Emax fell in the range of 30 to 80% and the EC50 was below 3 µM.

Take `CC(C)=C(C)c1nc(-c2cc(F)cc(OCC(C)C)c2)ccc1C(=O)NS(=O)(=O)c1cccc(N)n1` [Compound 37, N-[(6-amino-2-pyridyl)sulfonyl]-2-(1,2-dimethylprop-1-enyl)-6-(3-fluoro-5-isobutoxy-phenyl)pyridine-3-carboxamide]: the Emax is 30 to 80% and the 50% effective concentration (EC50) is below 3 µM.

With `CC(C)COc1cc(F)cc(-c2ccc(C(=O)NS(=O)(=O)c3cccc(N)n3)c(OCC(F)F)n2)c1` [Compound 38, N-[(6-amino-2-pyridyl)sulfonyl]-2-(2,2-difluoroethoxy)-6-(3-fluoro-5-isobutoxy-phenyl)pyridine-3-carboxamide], the Emax was 30 to 80% and the EC50 was 3 to 10 µM.

With `CCCNc1cccc(S(=O)(=O)NC(=O)c2ccc(-c3cc(F)cc(OCC(C)C)c3)nc2NCCC)n1` [Compound 39, 6-(3-fluoro-5-isobutoxy-phenyl)-2-(propylamino)-N-[[6-(propylamino)-2-pyridyl]sulfonyl]pyridine-3-carboxamide], the Emax lay within 30 to 80% and the EC50 is below 3 µM.

As for `CCC(Oc1nc(-c2cc(F)cc(OCC(C)C)c2)ccc1C(=O)NS(=O)(=O)c1cccc(N)n1)C(C)C` (stereo not drawn) [Compound 40, N-[(6-amino-2-pyridyl)sulfonyl]-2-(1-ethyl-2-methyl-propoxy)-6-(3-fluoro-5-isobutoxy-phenyl)pyridine-3-carboxamide], the Emax fell in the range of 30 to 80% and the EC50 is below 3 µM.

Regarding `CC(C)COc1cc(F)cc(-c2ccc(C(=O)NS(=O)(=O)c3cccc(N)n3)c(N(C(C)C)C(C)C)n2)c1` [Compound 41, N-[(6-amino-2-pyridyl)sulfonyl]-2-(diisopropylamino)-6-(3-fluoro-5-isobutoxy-phenyl)pyridine-3-carboxamide], the Emax is above 80% and the EC50 is below 3 µM.

As to `C=CC(C)Oc1nc(-c2cc(F)cc(OCC(C)C)c2)ccc1C(=O)NS(=O)(=O)c1cccc(N)n1` (stereo not drawn) [Compound 42, N-[(6-amino-2-pyridyl)sulfonyl]-6-(3-fluoro-5-isobutoxy-phenyl)-2-(1-methylallyloxy)pyridine-3-carboxamide], the Emax is above 80% and the EC50 was below 3 µM.

Take `C=CCOc1nc(-c2cc(F)cc(OCC(C)C)c2)ccc1C(=O)NS(=O)(=O)c1cccc(N)n1` [Compound 43, 2-allyloxy-N-[(6-amino-2-pyridyl)sulfonyl]-6-(3-fluoro-5-isobutoxy-phenyl)pyridine-3-carboxamide]: the Emax was 30 to 80% and the EC50 is below 3 µM.

With `CCC(C)(C)Oc1nc(-c2cc(F)cc(OCC(C)C)c2)ccc1C(=O)NS(=O)(=O)c1cccc(N)n1` [Compound 44, N-[(6-amino-2-pyridyl)sulfonyl]-2-(1,1-dimethylpropoxy)-6-(3-fluoro-5-isobutoxy-phenyl)pyridine-3-carboxamide], the Emax was above 80% and the concentration for a half-maximal effect (EC50) was below 3 µM.

Turning to `CC(C)Oc1nc(C(C)(C)C)ccc1C(=O)NS(=O)(=O)c1cccc(N)n1` [Compound 45, N-[(6-amino-2-pyridyl)sulfonyl]-6-tert-butyl-2-isopropoxy-pyridine-3-carboxamide], the Emax is 30 to 80% and the EC50 fell in the range of 3 to 10 µM.

`CCN(CC)c1nc(-c2cc(F)cc(OCC(C)C)c2)ccc1C(=O)NS(=O)(=O)c1ccn[nH]1` [Compound 46, 2-(diethylamino)-6-(3-fluoro-5-isobutoxy-phenyl)-N-(1H-pyrazol-5-ylsulfonyl)pyridine-3-carboxamide]: the Emax lay within 30 to 80% and the EC50 is below 3 µM.

Consider `CCC(CC)Oc1nc(-c2cc(F)cc(OCC(C)C)c2)ccc1C(=O)NS(=O)(=O)c1cccc(N)n1` [Compound 47, N-[(6-amino-2-pyridyl)sulfonyl]-2-(1-ethylpropoxy)-6-(3-fluoro-5-isobutoxy-phenyl)pyridine-3-carboxamide], for which the Emax was above 80% and the EC50 is below 3 µM.

As for `CC(C)COc1cc(F)cc(-c2ccc(C(=O)NS(=O)(=O)c3cccc(N)n3)c(OCC(F)(F)F)n2)c1` [Compound 48, N-[(6-amino-2-pyridyl)sulfonyl]-6-(3-fluoro-5-isobutoxy-phenyl)-2-(2,2,2-trifluoroethoxy)pyridine-3-carboxamide], the Emax was 30 to 80% and the EC50 lay within 3 to 10 µM.

As for `C=C(C)COc1nc(-c2cc(F)cc(OCC(C)C)c2)ccc1C(=O)NS(=O)(=O)c1cccc(N)n1` [Compound 49, N-[(6-amino-2-pyridyl)sulfonyl]-6-(3-fluoro-5-isobutoxy-phenyl)-2-(2-methylallyloxy)pyridine-3-carboxamide], the Emax was above 80% and the 50% effective concentration (EC50) was below 3 µM.

In the case of `CC(C)COc1cc(F)cc(-c2ccc(C(=O)NS(=O)(=O)c3ccn[nH]3)c(NCCC(C)(C)C)n2)c1` [Compound 50, 2-(3,3-dimethylbutylamino)-6-(3-fluoro-5-isobutoxy-phenyl)-N-(1H-pyrazol-5-ylsulfonyl)pyridine-3-carboxamide], the Emax fell in the range of 30 to 80% and the EC50 was 3 to 10 µM.

With `COCC(C)(C)Oc1nc(-c2cc(F)cc(OCC(C)C)c2)ccc1C(=O)NS(=O)(=O)c1cccc(N)n1` [Compound 51, N-[(6-amino-2-pyridyl)sulfonyl]-6-(3-fluoro-5-isobutoxy-phenyl)-2-(2-methoxy-1,1-dimethyl-ethoxy)pyridine-3-carboxamide], the Emax lay in the range of 30 to 80% and the EC50 was below 3 µM.

For `CC(C)COc1cc(F)cc(-c2ccc(C(=O)NS(=O)(=O)c3cccc(N)n3)c(N(C)CC(C)(C)C)n2)c1` [Compound 52, N-[(6-amino-2-pyridyl)sulfonyl]-2-[2,2-dimethylpropyl(methyl)amino]-6-(3-fluoro-5-isobutoxy-phenyl)pyridine-3-carboxamide], the Emax was above 80% and the EC50 is below 3 µM.
